Data published in US9809602B2, “Compounds for treating viral infections” (INSTITUT PASTEUR KOREA, priority 2014, dated 2017).

What follows are compounds tested on genotype 1/2 chimeric cell culture derived HCV (HCVcc) (assay: Genotype 1/2 chimeric HCVcc assay (nano-luciferase, HCV replication)). Settings: Hepatitis C virus.
Assay type: cell-based
Procedure, shortened: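 Huh-7.5 cells (2400/well) pretreated 2 h with serially diluted compound, then infected with nano-luciferase genotype 1a/2a (JFH-1) chimeric HCVcc. At 72 h post infection, nano-luciferase reported replication and cellular ATP reported cytotoxicity; EC50 and CC50 by non-linear regression.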

SMILES | EC50
N#Cc1cc(NC(=O)CCCN2CCC(N3CCCCC3)CC2)ccc1-c1ccc(C(F)(F)F)cc1 [Compound 1159] | 100 to 1000 nM
O=C(NCCCN1CCC(N2CCCCC2)CC1)c1ccc(-c2ccc([N+](=O)[O-])cc2)cc1 [Compound 1122] | 100 to 1000 nM
O=C(NCCCN1CCC(N2CCCCC2)CC1)c1ccc(-c2ccc(Cl)cc2)cc1 [Compound 1021] | 100 to 1000 nM
Cc1cccc(-c2ccc(C(=O)NCCCN3CCC(N4CCCCC4)CC3)cc2)c1 [Compound 1014] | 1000 to 10000 nM
O=C(NCCCN1CCC(N2CCCCC2)CC1)c1ccc(-c2ccc(F)cc2)cc1 [Compound 1020] | 100 to 1000 nM
COc1ccccc1-c1ccc(C(=O)NCCCN2CCC(N3CCCCC3)CC2)cc1 [Compound 1017] | 1000 to 10000 nM
COc1cc(C(=O)NCCCN2CCC(N3CCCCC3)CC2)ccc1-c1ccc(C(F)(F)F)cc1 [Compound 1115] | 100 to 1000 nM
O=C(NCCCN1CCC(NC2CCCCC2)CC1)c1ccc(Oc2ccccc2)cc1 [Compound 1079] | 100 to 1000 nM
O=C(NCCCN1CCN(Cc2ccccc2)CC1)c1ccc(Oc2ccccc2)cc1 [Compound 1036] | 1000 to 10000 nM
O=C(NCCCN1CCC(Nc2ccccc2)CC1)c1ccc(Oc2ccccc2)cc1 [Compound 1058] | 1000 to 10000 nM
CC(C)(C)OC(=O)c1ccc(-c2ccc(C(=O)NCCCN3CCC(N4CCCCC4)CC3)cc2)cc1 [Compound 1139] | 100 to 1000 nM
O=C(NCCOCCN1CCC(N2CCCCC2)CC1)c1ccc(Oc2ccccc2)cc1 [Compound 1077] | 1000 to 10000 nM
CN1CCN(C(=O)c2ccc(-c3ccc(C(=O)NCCCN4CCC(N5CCCCC5)CC4)cc3)cc2)CC1 [Compound 1151] | > 10000 nM
O=C(NCCCOc1ccc(N2CCCCC2)cc1)c1ccc(Oc2ccccc2)cc1 [Compound 1051] | > 10000 nM
O=C(NCCCCN1CCC(N2CCCCC2)CC1)c1ccc(Oc2ccccc2)cc1 [Compound 1045] | 100 to 1000 nM
O=C(NCCCN1CCC(N2CCCCC2)CC1)c1ccc(OCc2ccc(F)cc2)cc1 [Compound 1043] | 1000 to 10000 nM
O=C(NCCCN1CCC(N2CCCCC2)CC1)c1ccc(-c2ccc(S(=O)(=O)N3CCOCC3)cc2)cc1 [Compound 1144] | 1000 to 10000 nM
O=C(NCCCN1CCC(N2CCCCC2)CC1)c1cccc(Oc2ccccc2)c1 [Compound 1031] | 1000 to 10000 nM
COc1ccc(-c2ccc(C(=O)NCCCN3CCC(N4CCCCC4)CC3)cc2)cc1 [Compound 1022] | < 100 nM
O=C(NCCCN1CCN(C(=O)C2CCCCC2)CC1)c1ccc(Oc2ccccc2)cc1 [Compound 1038] | > 10000 nM
O=C(NCCCN1CCC(C2CCCCC2)CC1)c1ccc(Oc2ccccc2)cc1 [Compound 1071] | 1000 to 10000 nM
O=C(NCCCN1CCC(N2CCCCC2)CC1)c1cccc(Oc2cccc(C(F)(F)F)c2)c1 [Compound 1107] | 100 to 1000 nM
O=S(=O)(NCCCN1CCC(N2CCCCC2)CC1)c1ccc(-c2ccc(OC(F)(F)F)cc2)cc1 [Compound 1092] | 100 to 1000 nM
O=C(NCCCN1CCC(N2CCCCC2)CC1)c1ccc(-c2ccc(C(F)(F)F)nc2)cc1 [Compound 1101] | 100 to 1000 nM
Cc1cc(NCCCN2CCC(N3CCCCC3)CC2)n2nc(-c3ccccc3)cc2n1 [Compound 1103] | 1000 to 10000 nM
O=C(NCCCN1CCC(N2CCCCC2)CC1)c1ccc(Nc2ccccc2)cc1 [Compound 1070] | 1000 to 10000 nM
CN(C)C(=O)c1ccc(-c2ccc(C(=O)NCCCN3CCC(N4CCCCC4)CC3)cc2)cc1 [Compound 1120] | > 10000 nM
NS(=O)(=O)c1ccc(-c2ccc(C(=O)NCCCN3CCC(N4CCCCC4)CC3)cc2)cc1 [Compound 1128] | > 10000 nM
O=C(NCCCN1CCC(N2CCCCC2)C1)c1ccc(Oc2ccccc2)cc1 (stereo not drawn) [Compound 1084] | > 10000 nM

Same assay, conditions: Hepatitis C virus, Huh7.5, 72 h

SMILES | EC50
CC(C)(C)OC(=O)c1c(NC(=O)NCc2c(C3CC3)sc3c2CCNC3)sc2c1CCCC2 [Compound 285] | < 100 nM
CCOC(=O)c1c(NC(=O)NCc2c(Br)sc3c2CCNC3)sc2c1CC(C)CC2C (stereo not drawn) [Compound 207] | < 100 nM
CCOC(=O)c1c(NC(=O)NCc2c(N3CCOCC3)sc3c2CCNC3)sc2c1CCCC2 [Compound 54] | 100 to 1000 nM
CCN1CCc2c(sc(-n3cccc3)c2CNC(=O)Nc2sc3c(c2C(=O)OC2CCCC2)CCCC3)C1 [Compound 222] | < 100 nM
CCOC(=O)c1c(NC(=O)NCc2c(-n3cccc3)sc3c2CCN(CC)C3)sc2c1CCNC2 [Compound 46] | 100 to 1000 nM
CCc1sc2c(c1CNC(=O)Nc1sc3c(c1C(=O)OC(C)(C)C)CCCC3)CCNC2 [Compound 181] | < 100 nM
CCN1CCc2c(sc(-n3cccc3)c2NC(=O)Nc2sc3c(c2C(=O)OC(C)(C)C)CCCC3)C1 [Compound 105] | 1000 to 10000 nM
CC1CCc2sc(NC(=O)NCc3c(Br)sc4c3CCNC4)c(C(=O)OC(C)(C)C)c2C1 (stereo not drawn) [Compound 234] | < 100 nM
CCOC(=O)c1c(NC(=O)NCc2c(Br)sc3c2CCN(CC)C3)sc2c1CCCC2 [Compound 110] | < 100 nM
CCOC(=O)c1c(NC(=O)NCc2c(Br)sc3c2CCN(C(C)C)C3)sc2c1CCCC2 [Compound 200] | < 100 nM
CN1CCc2c(sc(C(F)(F)F)c2CNC(=O)Nc2sc3c(c2C(=O)OC(C)(C)C)CCCC3)C1 [Compound 184] | < 100 nM
CC(C)(C)OC(=O)c1c(NC(=O)NCc2c(C(F)(F)F)sc3c2CCNC3)sc2c1CCC2 [Compound 244] | < 100 nM
CCOC(=O)c1c(NC(=O)NCc2c(-n3cccc3)sc3c2CCN(CC)C3)sc2c1C(C)CCC2 (stereo not drawn) [Compound 151] | < 100 nM
Cc1sc(NC(=O)NCc2c(C(F)(F)F)sc3c2CCNC3)c(C(=O)OC(C)(C)C)c1C [Compound 137] | < 100 nM
CC(C)(C)OC(=O)c1c(NC(=O)NCc2c(C(F)(F)F)sc3c2CCNC3)sc2c1CCC(O)C2 (stereo not drawn) [Compound 349] | < 100 nM
CC(C)(C)OC(=O)c1c(NC(=O)NCc2c(Br)sc3c2CCNC3)sc2c1CCCC2 [Compound 116] | < 100 nM
CN1CCN(C(=O)c2c(NC(=O)NCc3c(-n4cccc4)sc4c3CCNC4)sc3c2CCCC3)CC1 [Compound 84] | 1000 to 10000 nM
Cc1nnc(-c2c(NC(=O)NCc3c(Br)sc4c3CCNC4)sc(C)c2C)o1 [Compound 162] | < 100 nM
CCN1CCc2c(sc(-n3cccc3)c2C(C)(C)NC(=O)Nc2sc3c(c2C(=O)OC(C)(C)C)CCCC3)C1 [Compound 202] | 1000 to 10000 nM
CCOC(=O)c1c(NC(=O)NCc2c(-n3cccc3)sc3c2CCN(C)C3)sc2c1CCC(C)C2 (stereo not drawn) [Compound 154] | < 100 nM
CC(C)(C)OC(=O)c1c(NC(=O)NCc2c(-c3cccc(C#N)c3)sc3c2CCNC3)sc2c1CCCC2 [Compound 229] | 100 to 1000 nM
CCN1CCc2c(sc(-n3cccc3)c2CNC(=O)Nc2sc3c(c2C(=O)NCC(C)C)CCCC3)C1 [Compound 80] | < 100 nM
CCOC(=O)c1c(NC(=O)NCc2c(Cl)sc3c2CCNC3)sc2c1CCCC2 [Compound 97] | 100 to 1000 nM

SMILES | EC50
CCOC(=O)c1c(NC(=O)NCc2c(C(F)(F)F)sc3c2CCNC3)sc2c1CCCC2 [Compound 96] | < 100 nM
CCN1CCc2c(sc(-n3cccc3)c2CNC(=O)Nc2sc3c(c2C(=O)NCCOCCOCCN)CCCC3)C1 [Compound 89] | 1000 to 10000 nM
CCOC(=O)c1c(N/C(=N/C#N)NCc2c(-n3cccc3)sc3c2CCN(CC)C3)sc2c1CCCC2 [Compound 77] | > 10000 nM
CCOC(=O)c1c(NC(=O)NCc2c(-n3cccc3)sc(C(=O)N(C)C)c2C)sc2c1CCCC2 [Compound 52] | 100 to 1000 nM
CCN1CCc2c(sc(Br)c2CNC(=O)Nc2sc3c(c2C(=O)OC(C)(C)C)CCCC3)C1 [Compound 111] | < 100 nM
CCOC(=O)c1c(NC(=O)NCc2c(C(F)(F)F)sc3c2CCNC3)sc(C)c1C [Compound 132] | < 100 nM
CC(C)(C)OC(=O)c1c(NC(=O)NCc2c(-c3ccc(F)cc3Cl)sc3c2CCNC3)sc2c1CCCC2 [Compound 286] | 100 to 1000 nM
CC1Cc2c(sc(NC(=O)NCc3c(Br)sc4c3CCNC4)c2C(=O)OC(C)(C)C)C(C)C1 (stereo not drawn) [Compound 267] | < 100 nM
CCOC(=O)c1c(NC(=O)NCc2c(Br)sc3c2CCNC3)sc2c1CCOC2 [Compound 163] | < 100 nM
CN1CCc2c(sc(C(F)(F)F)c2CNC(=O)Nc2sc3c(c2C(=O)OC(C)(C)C)CCC3)C1 [Compound 278] | < 100 nM
CCOC(=O)c1c(NC(=O)NCc2c(-c3ccoc3)sc3c2CCNC3)sc2c1CCCC2 [Compound 339] | < 100 nM
CCOC(=O)c1c(NC(=O)NCc2c(-n3cccc3)sc3c2CCN(C)C3)sc2ccccc12 [Compound 66] | < 100 nM
CCc1sc(NC(=O)NCc2c(C(F)(F)F)sc3c2CCNC3)c(C(=O)OC(C)(C)C)c1C [Compound 270] | < 100 nM
CCOC(=O)c1c(NC(=O)NCc2c(C(F)(F)F)sc3c2CCN(C(=N)N)C3)sc2c1CCCC2 [Compound 341] | < 100 nM
CC(C)(C)OC(=O)c1c(NC(=O)NCc2c(-c3cc(F)cc(C(F)(F)F)c3)sc3c2CCNC3)sc2c1CCCC2 [Compound 246] | 1000 to 10000 nM
CCOC(=O)c1c(NC(=O)NCc2csc3c2CCCC3)sc2c1CCCC2 [Compound 35] | < 100 nM
CN(C)c1cccc(-c2sc3c(c2CNC(=O)Nc2sc4c(c2C(=O)OC(C)(C)C)CCCC4)CCNC3)c1 [Compound 230] | 1000 to 10000 nM
CCOC(=O)c1c(NC(=O)C(=O)NCc2c(-n3cccc3)sc3c2CCN(C(=O)OC(C)(C)C)C3)sc2c1CCCC2 [Compound 85] | > 10000 nM
Cc1sc(NC(=O)NCc2c(C(F)(F)F)sc3c2CCN(CCN(C)C)C3)c(C(=O)OC(C)(C)C)c1C [Compound 367] | < 100 nM
CCOC(=O)c1c(NC(=O)NCc2c(-n3cccc3)sc(CN3CCOCC3)c2C)sc2c1CCCC2 [Compound 53] | < 100 nM
CC(C)(C)OC(=O)c1c(NC(=O)NCc2c(-c3ccoc3)sc3c2CCNC3)sc2c1CCCC2 [Compound 183] | < 100 nM
CN1CCc2c(sc(-n3cccc3)c2CNC(=O)Nc2sc3c(c2C(=O)OC(C)(C)C)CCOC3)C1 [Compound 236] | < 100 nM
O=C(NCc1c(-c2ccco2)sc2c1CCNC2)Nc1sc2c(c1C(=O)OC1CCOC1)CCCC2 (stereo not drawn) [Compound 342] | < 100 nM
